According to patent US20260184708A1, “PYRIDAZINONES AND METHODS OF USE THEREOF” (GFB (ABC), LLC, priority 2017, published 2026):
Where two headings read alike, the source gives them in different places.

Molecular target: T1, TRPC5 (Homo sapiens, UniProt Q9UL62)
T1 construct: expressed in transfected cells; host or cells: HEK 293
T1 sequence (Q9UL62 1-973): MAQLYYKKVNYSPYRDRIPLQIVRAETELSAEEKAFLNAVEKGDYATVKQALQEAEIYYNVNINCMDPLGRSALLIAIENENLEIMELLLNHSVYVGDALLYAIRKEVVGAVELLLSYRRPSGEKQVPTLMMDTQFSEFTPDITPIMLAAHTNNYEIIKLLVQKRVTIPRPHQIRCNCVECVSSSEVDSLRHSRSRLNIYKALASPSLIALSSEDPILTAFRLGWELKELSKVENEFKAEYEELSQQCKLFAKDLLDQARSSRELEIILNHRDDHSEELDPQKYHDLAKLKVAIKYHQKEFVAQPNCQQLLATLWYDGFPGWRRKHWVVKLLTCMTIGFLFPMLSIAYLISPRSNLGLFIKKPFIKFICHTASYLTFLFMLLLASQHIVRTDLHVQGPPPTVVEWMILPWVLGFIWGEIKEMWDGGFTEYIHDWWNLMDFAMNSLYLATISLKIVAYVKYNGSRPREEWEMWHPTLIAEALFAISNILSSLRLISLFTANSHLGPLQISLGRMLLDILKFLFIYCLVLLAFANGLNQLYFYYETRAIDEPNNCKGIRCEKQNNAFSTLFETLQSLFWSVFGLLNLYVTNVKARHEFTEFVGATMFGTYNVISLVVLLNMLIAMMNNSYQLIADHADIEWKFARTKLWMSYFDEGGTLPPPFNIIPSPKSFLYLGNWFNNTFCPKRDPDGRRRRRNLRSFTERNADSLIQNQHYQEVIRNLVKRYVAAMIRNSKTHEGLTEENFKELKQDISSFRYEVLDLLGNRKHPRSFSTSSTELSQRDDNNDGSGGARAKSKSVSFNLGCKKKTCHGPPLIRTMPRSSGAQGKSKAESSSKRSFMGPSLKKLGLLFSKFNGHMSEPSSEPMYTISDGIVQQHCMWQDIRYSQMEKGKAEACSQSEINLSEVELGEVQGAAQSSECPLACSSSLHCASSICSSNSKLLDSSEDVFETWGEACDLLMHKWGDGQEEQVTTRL
Assay: TRPC5 automated patch clamp assay (Qpatch), current block after rosiglitazone stimulation
Format: cell-based
Details: Table 5, HEK293 cells overexpressing TRPC5, rosiglitazone stimulation
Description: HEK 293 cells expressing human TRPC5 were harvested, re-suspended in serum free medium, and added to the automated platform and used within 2-3 hours. Internal and external physiological solutions were freshly prepared prior to the assay. The external solution contained: 145 mM NaCl, 4 mM KCl, 2 mM CaCl2), 1 mM MgCl2, 10 mM HEPES, 10 mM glucose, pH 7.4 with NaOH and 300 mOsm/L. The internal solution contained 120 mM L-aspartic acid, 120 mM CsOH·H2O, 20 mM CsCl, 2 mM MgCl2, 8.8 mM CaCl2), 10 mM EGTA, 10 mM HEPES, 10 mM Glucose, 0.1 mM GTP and 2 mM Na2ATP; pH 7.2 with CsOH and 290 mOsm/L. The free internal Ca2+ concentration was buffered to 1 μM.
The automated electrophysiological platform QPatch 16 from Sophion (Denmark) was used to carry out the compounds profiling. The series resistance and quality of seals were continuously monitored during the experiments. Data was analyzed using Sophion QPatch assay software 5.6 (Odense). IC50 values were calculated using a least squares regression algorithm (Hill equation).
To monitor the ion currents, a voltage ramp from −100 mV to +100 mV, over 300 ms, was applied every 10 seconds, from a holding potential of −60 mV.
After recording for a minimum of 60 seconds control period, Rosiglitazone (30 uM), was applied to activate the channel.

[1] = 80 mV, read-out: TRPC5_QP_ XC50_80
[2] = 100 mV, read-out: TRPC5_QP_ XC50_100

| Compound | IC50 [1] [µM] | IC50 [2] [µM] |
| --- | --- | --- |
| O=C1CN(c2cn[nH]c(=O)c2Cl)CCN1Cc1ccc(OC(F)(F)F)cc1F | 5 to 10 | 5 to 10 |
| O=C1CN(c2cn[nH]c(=O)c2Cl)CCN1Cc1ccc(F)cc1C(F)(F)F | 1e-05 to 1 | 1e-05 to 1 |
| Cc1ccccc1CN1CC2(CCN(c3cn[nH]c(=O)c3Cl)CC2)C1 | 1 to 5 | 1 to 5 |
| CC(C)(C)c1ccc(CN2CCN(c3cn[nH]c(=O)c3Cl)CC2=O)cc1 | 10 to 500 | 10 to 500 |
| O=C1CN(c2cn[nH]c(=O)c2Cl)CCN1Cc1cccnc1Cl | 10 to 500 | 10 to 500 |
| COc1ncccc1CN1CCN(c2cn[nH]c(=O)c2Cl)CC1=O | 5 to 10 | 5 to 10 |
| COc1ccc(CN2CCN(c3cn[nH]c(=O)c3Cl)CC2=O)cc1 | 5 to 10 | 5 to 10 |
| O=C1CN(c2cn[nH]c(=O)c2Cl)CCN1Cc1ccc(Cl)cc1 | 1 to 5 | 5 to 10 |
| Cc1ccc(CN2CCN(c3cn[nH]c(=O)c3Cl)CC2=O)cc1 | 5 to 10 | 5 to 10 |
| CC(c1ccccc1)n1cnc2c1CCN(c1cn[nH]c(=O)c1Cl)C2 (stereo not shown) | 1 to 5 | 1 to 5 |
| O=C1CN(c2cn[nH]c(=O)c2Cl)CCN1Cc1cccnc1Oc1ccccc1 | 5 to 10 | 5 to 10 |
| CC[C@@H](c1ccccc1)N1CCN(c2cn[nH]c(=O)c2Cl)CC1 | 1 to 5 | 1 to 5 |
| O=C1CN(c2cn[nH]c(=O)c2Cl)CCN1C1(c2ccccc2)CC1 | 1 to 5 | 1 to 5 |
| CC[C@H](c1ccccc1)N1CCN(c2cn[nH]c(=O)c2Cl)CC1 | 1 to 5 | 1 to 5 |
| Cc1ccccc1Cn1cnc2c1CN(c1cn[nH]c(=O)c1Cl)CC2 | 10 to 500 | 10 to 500 |
| O=c1[nH]ncc(N2CCc3ncn(Cc4ccccc4)c3C2)c1Cl | 10 to 500 | 10 to 500 |
| CS(=O)(=O)c1ccc(CN2CCN(c3cn[nH]c(=O)c3Cl)CC2=O)cc1 | 10 to 500 | 10 to 500 |
| O=c1[nH]ncc(N2CCN(Cc3cccnc3Oc3ccccc3)CC2)c1Cl | 5 to 10 | 5 to 10 |
| O=C1CN(c2cn[nH]c(=O)c2Cl)CCN1Cc1ccc(C2CC2)cc1 | 10 to 500 | 10 to 500 |

Results, then the compound that gave them:

| IC50 [1] [µM] | IC50 [2] [µM] | Compound |
| --- | --- | --- |
| 1 to 5 | 1 to 5 | COc1ncccc1CN1CCN(c2cn[nH]c(=O)c2Cl)CC1 |
| 5 to 10 | 5 to 10 | Cc1n[nH]c(=O)c(Cl)c1N1CCN(Cc2ccccc2C(F)(F)F)C(=O)C1 |
| 5 to 10 | 5 to 10 | Cc1n[nH]c(=O)c(Cl)c1N1CCN(Cc2ccccc2OC(F)(F)F)C(=O)C1 |
| 10 to 500 | 10 to 500 | COc1cc(F)ccc1CN1CCN(c2c(Cl)cn[nH]c2=O)CC1=O |
| 10 to 500 | 10 to 500 | CC[C@@H]1CN(Cc2ccc(F)cc2C)CCN1c1cn[nH]c(=O)c1Cl |
| 10 to 500 | 10 to 500 | CCCOc1n[nH]c(=O)cc1N1CCN(Cc2ccc(F)cc2C)CC1 |
| 1 to 5 | 1 to 5 | Cc1cc(F)ccc1CN1CCN(c2cc(=O)[nH]nc2-c2ccccc2)CC1 |
| 10 to 500 | 10 to 500 | C=Cc1n[nH]c(=O)c(Cl)c1N1CCN(Cc2ccc(F)cc2C)CC1 |
| 10 to 500 | 10 to 500 | Cc1cc(F)ccc1CN1CCN(c2cc(=O)[nH]nc2C)CC1=O |
| 5 to 10 | 5 to 10 | CS(=O)(=O)c1ccccc1CN1CCN(c2cn[nH]c(=O)c2Cl)CC1 |
| 1 to 5 | 1 to 5 | CCc1cn[nH]c(=O)c1N1CCN(Cc2ccc(F)cc2C)CC1 |
| 1 to 5 | 1 to 5 | COc1cn[nH]c(=O)c1N1CCN(Cc2ccc(F)cc2C)CC1 |
| 1 to 5 | 1 to 5 | Cc1cc(F)ccc1CN1CCN(c2c(C)cn[nH]c2=O)CC1 |
